Measurements as given in patent publication US9493411B2 (AbbVie Inc., priority 2013, dated 2016).

Legend:
BRD4 (BDI_K57-E168) = target: T1, BRD4 (BDI_K57-E168) (Homo sapiens, UniProt O60885); assay: TR-FRET bromodomain binding assay, BRD4 first bromodomain; conditions: His-tagged BD1, Alexa647-labeled probe 100 nM; Ki calculated from IC50
T1 construct: BD1: amino acids K57-E168; made in house
Method in brief: (§1)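 Affinity for each isolated His-tagged domain was measured as competition with a fluorescent Alexa647 BET-inhibitor probe in a TR-FRET format at pH 6.0, 1 h room temperature incubation. Ki values were calculated from fitted IC50s, probe Kd and probe level (100 nM BDI, 30 nM BDII).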

BRD4 (BDII_E352-M457) = target: T2, BRD4 (BDII_E352-M457) (Homo sapiens, UniProt O60885); assay: TR-FRET bromodomain binding assay, BRD4 second bromodomain; conditions: His-tagged BD2, Alexa647-labeled probe 30 nM; Ki calculated from IC50
T2 construct: made in house
Method in brief: as §1

[1] = system: breast cancer cell line MX-1; assay: MX-1 cell line proliferation assay; format: cell-based; conditions: Homo sapiens, MX1, 72 h, MX-1 cells, 3-day proliferation assay, Cell Titer Glo; read-out: Cellular proliferation: EC50
Experimental: The impact of compounds of the Examples on cancer cell proliferation was determined using the breast cancer cell line MX-1 (ATCC) in a 3-day proliferation assay and the data are reported in Table 1. MX-1 cells were maintained in RPMI 1640 medium (Sigma) supplemented with 10% FBS at 37° C. and an atmosphere of 5% CO2. For compound testing, MX-1 cells were plated in 96-well black bottom plates at a density of 5000 cells/well in 90 μL of culture media and incubated at 37° overnight to allow cell adhesion and spreading. Compound dilution series were prepared in DMSO via a 3-fold serial dilution from 3 mM to 0.1 μM. The DMSO dilution series were then diluted 1:100 in phosphate buffered saline, and 10 μL of the resulted solution were added to the appropriate wells of the MX-1 cell plate. The final compound concentrations in the wells were 3, 1, 0.3, 0.1, 0.03, 0.01, 0.003, 0.001, 0.0003 and 0.0001 μM.
Luminescence readings from the Cell Titer Glo assay were normalized to the DMSO treated cells and analyzed using the GraphPad Prism software with sigmoidal curve fitting to obtain EC50s. The minimum significant ratio (MSR) was determined to evaluate assay reproducibility (Eastwood et al., (2006) J Biomol Screen, 11: 253-261).

| Structure (SMILES) | Ki (BRD4 (BDI_K57-E168)) [nM] | Ki (BRD4 (BDII_E352-M457)) [nM] | EC50 [1] [nM] |
| --- | --- | --- | --- |
| Cc1[nH]c(-c2cccc(-c3ccc(C(=O)NCCN(C)C)cc3)c2)cc1C(N)=O [Example 159, 5-(4′-{[2-(dimethylamino)ethyl]carbamoyl}biphenyl-3-yl)-2-methyl-1H-pyrrole-3-carboxamide] | 1080 | 2100 | 28600 |
| Cc1[nH]c(-c2cc(CCO)ccc2OCc2ccccc2)cc1C(N)=O [Example 167, 5-[2-(benzyloxy)-5-(2-hydroxyethyl)phenyl]-2-methyl-1H-pyrrole-3-carboxamide] | 627 | 2250 | > 3000 |
| Cc1[nH]c(-c2cc(S(N)(=O)=O)ccc2Oc2ccc(F)cc2F)cc1C(N)=O [Example 168, 5-[2-(2,4-difluorophenoxy)-5-sulfamoylphenyl]-2-methyl-1H-pyrrole-3-carboxamide] | 106 | 757 | > 3000 |
